From US20240384268A1, “Oligonucleotides” (Hudson Institute of Medical Research, priority 2021, published 2024)
“Also recorded” adds a separate entry of the source. In the oligonucleotide strings, read from the 5' end, every base follows the letter of its sugar. An asterisk marks phosphorothioate; unmarked linkages are phosphodiester. Other units and linkages are bracketed, terminal groups are in braces. A string of capitals states the bases alone. d = 2'-deoxy (DNA); m = 2'-O-methyl

How the values were obtained:
[1] = tested on: TLR4; experiment: LPS-driven IP-10 in MG-63 cells and immortalised mouse BMDMs; assay type: cell-based, human; conditions: 500 nM ASO 6 h; LPS 1 μg/ml overnight
[2] = molecular target: T1, TLR2/1 (Mus musculus, UniProt Q9EPQ1+Q9QUN7); experiment: PAM3CSK4-driven TNF-α in immortalised mouse BMDMs; assay type: cell-based; conditions: iBMDMs; 500 nM ASO 6 h; PAM3C 100 ng/ml
T1 construct: endogenous in cells; host or cells: immortalised wild-type mouse BMDMs

[3] = molecular target: T2, TLR7 (Mus musculus, UniProt P58681); experiment: B-406-AS ssRNA-induced TNFα in primary BMDMs; conditions: WT primary BMDMs; 100 nM ASO 1 h; 250 nM B-406-AS RNA overnight; vs dC20 co-treatment
T2 sequence (P58681 27-1050): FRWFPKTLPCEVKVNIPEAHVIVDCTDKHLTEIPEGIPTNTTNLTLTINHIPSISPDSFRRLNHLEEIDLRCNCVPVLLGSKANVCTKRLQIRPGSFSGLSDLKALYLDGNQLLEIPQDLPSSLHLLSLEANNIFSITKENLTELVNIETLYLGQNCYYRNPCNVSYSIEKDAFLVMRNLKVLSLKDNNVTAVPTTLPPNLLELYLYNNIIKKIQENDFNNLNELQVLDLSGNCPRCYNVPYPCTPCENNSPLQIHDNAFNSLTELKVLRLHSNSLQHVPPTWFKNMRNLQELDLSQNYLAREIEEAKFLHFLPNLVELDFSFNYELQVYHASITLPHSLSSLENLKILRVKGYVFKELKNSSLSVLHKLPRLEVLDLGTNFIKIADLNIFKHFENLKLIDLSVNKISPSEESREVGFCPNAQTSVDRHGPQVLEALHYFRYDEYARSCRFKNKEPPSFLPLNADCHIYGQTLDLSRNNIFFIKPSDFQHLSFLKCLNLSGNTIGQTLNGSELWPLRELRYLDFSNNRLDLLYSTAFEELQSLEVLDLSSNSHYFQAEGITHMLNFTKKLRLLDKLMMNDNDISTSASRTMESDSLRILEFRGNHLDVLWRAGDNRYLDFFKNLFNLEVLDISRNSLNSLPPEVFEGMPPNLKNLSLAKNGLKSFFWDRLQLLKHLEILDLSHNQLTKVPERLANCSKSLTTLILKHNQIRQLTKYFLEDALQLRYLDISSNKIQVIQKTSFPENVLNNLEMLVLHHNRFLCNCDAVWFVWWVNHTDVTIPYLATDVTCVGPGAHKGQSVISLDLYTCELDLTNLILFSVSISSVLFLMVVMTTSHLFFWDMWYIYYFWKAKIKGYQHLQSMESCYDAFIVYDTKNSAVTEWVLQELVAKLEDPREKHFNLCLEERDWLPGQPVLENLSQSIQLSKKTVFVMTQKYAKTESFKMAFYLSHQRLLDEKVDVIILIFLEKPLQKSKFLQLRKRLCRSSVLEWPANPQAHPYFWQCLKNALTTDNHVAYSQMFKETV

[4] = molecular target: T3, STING (Homo sapiens, UniProt Q86WV6); experiment: STING agonist (GSK, DMXAA)-driven IP-10 in MG-63 cells and immortalised mouse BMDMs; assay type: cell-based; conditions: C2-Mut1 500 nM 6 h (GSK 100 nM, DMXAA 50 μg/ml); MOE/LNA ASOs 1 mM as printed (GSK, MG-63)
T3 construct: host or cells: MG-63 (human osteosarcoma)

[5] = tested on: primary fibroblast-like synoviocytes (FLS) and bone marrow-derived MSCs; experiment: Senescence β-galactosidase staining of primary FLS and MSCs; conditions: naked ASO 1 to 5 μM for one to two weeks; listed as C2-Mutl
[6] = molecular target: T4, mouse Tlr9 (Mus musculus, UniProt Q9EQU3); experiment: ODN 1826-driven TNF-α in immortalised mouse BMDMs; assay type: cell-based; conditions: iBMDMs; 250-500 nM ASO; ODN 1826 500 nM overnight; listed as C2-Mutl
T4 construct: endogenous in cells; host or cells: immortalised wild-type mouse BMDMs
T4 sequence (Q9EQU3 26-1032): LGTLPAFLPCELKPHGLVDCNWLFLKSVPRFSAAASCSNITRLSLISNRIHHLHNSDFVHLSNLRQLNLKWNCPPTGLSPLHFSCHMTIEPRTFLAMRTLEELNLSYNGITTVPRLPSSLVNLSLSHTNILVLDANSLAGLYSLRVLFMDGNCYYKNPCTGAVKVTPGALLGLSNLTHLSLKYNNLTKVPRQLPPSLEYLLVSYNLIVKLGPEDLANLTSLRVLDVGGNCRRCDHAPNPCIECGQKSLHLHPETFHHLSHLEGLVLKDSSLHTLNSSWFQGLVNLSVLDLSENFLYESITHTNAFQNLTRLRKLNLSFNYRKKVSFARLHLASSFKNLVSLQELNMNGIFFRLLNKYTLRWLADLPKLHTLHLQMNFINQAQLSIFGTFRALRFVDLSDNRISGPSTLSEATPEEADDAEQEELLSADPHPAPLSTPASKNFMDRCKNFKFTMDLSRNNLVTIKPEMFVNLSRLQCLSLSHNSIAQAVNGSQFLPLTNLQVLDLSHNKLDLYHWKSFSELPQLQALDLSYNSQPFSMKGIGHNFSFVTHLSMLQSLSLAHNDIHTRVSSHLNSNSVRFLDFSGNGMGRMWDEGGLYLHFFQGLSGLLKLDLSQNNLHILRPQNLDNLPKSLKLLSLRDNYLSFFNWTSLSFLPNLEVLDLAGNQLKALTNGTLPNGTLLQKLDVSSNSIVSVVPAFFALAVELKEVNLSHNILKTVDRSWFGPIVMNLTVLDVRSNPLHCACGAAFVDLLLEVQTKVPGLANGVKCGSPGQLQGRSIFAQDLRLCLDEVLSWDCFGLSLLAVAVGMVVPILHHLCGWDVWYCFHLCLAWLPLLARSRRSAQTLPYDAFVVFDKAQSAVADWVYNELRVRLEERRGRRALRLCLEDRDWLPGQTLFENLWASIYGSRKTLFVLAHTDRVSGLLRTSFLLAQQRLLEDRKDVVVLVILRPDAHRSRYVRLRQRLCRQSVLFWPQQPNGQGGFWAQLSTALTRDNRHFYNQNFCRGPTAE

[7] = molecular target: cGAS (Homo sapiens, UniProt Q8N884); experiment: ISD70-driven IP-10 production in MG-63 cells; assay type: cell-based; design: endogenous in cells; conditions: C2-Mut1 500 nM 6 h, or ASO847 series ~30 min, ISD70 overnight
Chain of cGAS (Q8N884 whole entry): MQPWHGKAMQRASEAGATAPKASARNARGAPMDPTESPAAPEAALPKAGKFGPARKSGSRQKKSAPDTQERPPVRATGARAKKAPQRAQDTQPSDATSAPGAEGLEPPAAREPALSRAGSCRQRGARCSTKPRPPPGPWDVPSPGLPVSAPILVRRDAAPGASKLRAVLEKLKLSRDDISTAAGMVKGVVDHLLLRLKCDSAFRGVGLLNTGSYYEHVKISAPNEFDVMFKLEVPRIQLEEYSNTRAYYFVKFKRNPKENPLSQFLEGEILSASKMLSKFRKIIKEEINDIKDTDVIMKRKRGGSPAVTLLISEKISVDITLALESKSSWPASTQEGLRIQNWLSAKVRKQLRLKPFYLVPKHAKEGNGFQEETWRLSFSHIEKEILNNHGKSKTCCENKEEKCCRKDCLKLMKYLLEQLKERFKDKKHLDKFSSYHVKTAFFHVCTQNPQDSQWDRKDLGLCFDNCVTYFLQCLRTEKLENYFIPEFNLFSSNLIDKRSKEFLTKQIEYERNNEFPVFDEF

T3 sequence (Q86WV6 whole entry): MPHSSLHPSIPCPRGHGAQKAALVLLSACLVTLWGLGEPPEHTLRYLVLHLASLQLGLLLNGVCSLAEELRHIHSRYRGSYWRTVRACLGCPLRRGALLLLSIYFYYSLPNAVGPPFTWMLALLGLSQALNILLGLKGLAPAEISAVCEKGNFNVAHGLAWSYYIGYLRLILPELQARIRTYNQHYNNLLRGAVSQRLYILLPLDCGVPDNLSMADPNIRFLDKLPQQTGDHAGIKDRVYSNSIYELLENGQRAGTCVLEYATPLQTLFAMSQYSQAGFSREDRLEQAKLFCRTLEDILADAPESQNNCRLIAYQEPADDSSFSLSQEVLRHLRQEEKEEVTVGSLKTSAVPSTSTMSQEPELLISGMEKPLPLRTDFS
T1 sequence (Q9QUN7 25-784): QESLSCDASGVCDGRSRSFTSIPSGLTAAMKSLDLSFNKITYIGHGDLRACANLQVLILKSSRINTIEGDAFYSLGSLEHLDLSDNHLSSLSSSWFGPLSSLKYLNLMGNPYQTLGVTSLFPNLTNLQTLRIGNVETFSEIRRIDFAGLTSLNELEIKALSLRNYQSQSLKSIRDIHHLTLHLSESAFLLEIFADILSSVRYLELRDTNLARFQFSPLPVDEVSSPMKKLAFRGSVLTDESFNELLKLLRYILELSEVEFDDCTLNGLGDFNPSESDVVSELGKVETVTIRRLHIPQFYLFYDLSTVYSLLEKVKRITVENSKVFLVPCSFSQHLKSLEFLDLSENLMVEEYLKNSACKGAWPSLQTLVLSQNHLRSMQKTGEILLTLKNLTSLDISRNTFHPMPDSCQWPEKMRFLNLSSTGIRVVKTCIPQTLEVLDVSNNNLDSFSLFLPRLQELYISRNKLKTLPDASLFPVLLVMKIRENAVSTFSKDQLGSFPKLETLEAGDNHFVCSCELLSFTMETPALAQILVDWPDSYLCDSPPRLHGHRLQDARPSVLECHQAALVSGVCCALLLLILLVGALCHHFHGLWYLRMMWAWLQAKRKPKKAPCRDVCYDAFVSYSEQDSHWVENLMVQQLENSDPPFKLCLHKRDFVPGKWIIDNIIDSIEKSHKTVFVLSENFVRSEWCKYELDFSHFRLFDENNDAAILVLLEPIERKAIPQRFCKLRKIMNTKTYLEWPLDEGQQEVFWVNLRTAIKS
T1 sequence (Q9EPQ1 26-795): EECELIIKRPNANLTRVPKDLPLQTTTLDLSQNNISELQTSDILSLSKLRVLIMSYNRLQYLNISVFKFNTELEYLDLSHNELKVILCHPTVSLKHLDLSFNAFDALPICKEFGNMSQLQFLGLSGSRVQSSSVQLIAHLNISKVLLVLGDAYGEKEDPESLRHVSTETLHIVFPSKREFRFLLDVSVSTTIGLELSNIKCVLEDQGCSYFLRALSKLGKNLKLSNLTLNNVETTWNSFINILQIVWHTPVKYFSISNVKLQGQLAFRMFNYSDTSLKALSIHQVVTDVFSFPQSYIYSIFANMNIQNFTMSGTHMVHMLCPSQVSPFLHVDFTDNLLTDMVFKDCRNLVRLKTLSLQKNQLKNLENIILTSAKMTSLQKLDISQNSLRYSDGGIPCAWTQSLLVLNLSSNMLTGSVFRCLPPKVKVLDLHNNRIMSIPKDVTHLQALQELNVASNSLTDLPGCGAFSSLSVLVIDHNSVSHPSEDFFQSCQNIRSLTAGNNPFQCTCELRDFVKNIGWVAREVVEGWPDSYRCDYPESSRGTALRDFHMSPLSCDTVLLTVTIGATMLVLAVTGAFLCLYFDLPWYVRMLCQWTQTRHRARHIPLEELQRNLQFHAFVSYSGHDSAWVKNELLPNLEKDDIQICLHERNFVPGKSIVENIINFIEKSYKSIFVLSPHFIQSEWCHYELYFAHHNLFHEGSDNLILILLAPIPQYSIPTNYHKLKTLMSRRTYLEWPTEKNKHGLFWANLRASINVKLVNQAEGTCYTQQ

Substance	IP-10 production driven by LPS (in words) [1]	TNF-α production upon PAM3CSK4 (in words) [2]	TNFα production induced by ssRNA sensing (in words) [3]	IP-10 production driven by STING synthetic agonists (in words) [4]	senescence-associated β-galactosidase (SAB) positive cells (in words) [5]	inhibition of mouse TLR9 sensing of CpG ODN (TNF-α; in words) [6]	inhibition of ISD sensing in MG-63, 2′OMe ASOs (in words) [7]
mG*mC*mG*mG*mU*A*T*C*C*A*T*G*T*C*C*mC*mA*mG*mG*mC (mG*mC*mG*mG*mU*dA*dT*dC*dC*dA*dT*dG*dT*dC*dC*mC*mA*mG*mG*mC; antisense) [C2-Mut1]	did not significantly affect IP-10 production	did not impact production of TNF-α	significantly reduced TNFα production	did not significantly affect IP-10 production	senescence was strongly reduced; also recorded: more potent inhibitor of SAB than A151	significantly decreased sensing of the CpG ODN 1826; also recorded: very potent inhibitor of mouse TLR9	significantly impacting ISD sensing
mG*mG*mU*A*T*C*C*C*C*C*C*C*C*C*C*C*C*C*C*C (GGUATCCCCCCCCCCCCCCC; antisense; sugars from the 5' end m3 d17, all phosphorothioate, methylation of C not given here) [[C2]Mut1-dC]	–	–	significantly reduced TNFα production	–	–	–	–
